Literature values, collected in US20060200870A1, “Methods of treating muscular dystrophy” (priority 2004, published 2006).
Entries after “also recorded” stand apart in the source; their conditions may differ.

Experiments:
humans with DMD = conditions: humans (males) with DMD
[1] = system: derangements or deficiencies in AGAT activity; conditions: oral creatine
patients with DMD = conditions: 0.75 mg/kg in intermittent regimens

Row | Compound | benefit of oral creatine supplementation (mdx mice) | benefit / therapeutic effect of oral creatine supplementation (humans with DMD) | success in overcoming derangements or deficiencies in AGAT activity [1] | independent ambulation (patients with DMD; some patients) | adverse side-effects (patients with DMD; weight-gain, osteopenia, hirsutism, cushingoid facies, behavioral and endocrinology-related issues)
1 | CN(CC(=O)O)C(=N)N [creatine] | some benefits | no such clear benefit; also recorded: has not been shown to have a significant therapeutic effect | partially successful |  | 
2 | C[C@]12C=CC(=O)C=C1CC[C@@H]1[C@@H]2C(=O)C[C@@]2(C)[C@H]1CC[C@]2(O)C(=O)CO [prednisone] |  |  |  | can help prolong independent ambulation | significant adverse side-effects
